In patent publication US9187469B2, “Morpholinylbenzotriazines for use in cancer therapy” (Merck Patent GmbH, priority 2011, dated 2015):
Where two headings read alike, the source gives them in different places.

Key:
mammal cells = conditions: Rosenzweig et al. (1999); cited from earlier work
DNA-PK [1] = molecular target: T1, DNA-PK (Homo sapiens (Human), UniProt P78527); experiment: DNA-PK biochemical assay (FlashPlate kinase assay, Example 4); conditions: 5 μM ATP
Protocol: The kinase assay was carried out in streptavidin-coated […] microtitre FlashPlates®. To this end, 1.5 μg of the DNA-PK/protein complex and 100 ng of biotinylated substrate, such as, for example, PESQEAFADLWKK biotin-NH2 (“biotin-DNA-PK peptide”), in a total volume of 36.5 μl (34.25 mM HEPES/KOH, 7.85 mM Tris-HCl, 68.5 mM KCl, 5 μM ATP, 6.85 mM MgCl2, 0.5 mM EDTA, 0.14 mM EGTA, 0.69 mM DTT, pH 7.4), were incubated at room temperature for 90 min with 500 ng of DNA from calf thymus, 0.1 μCi of 33P-ATP and 1.8% of DMSO per well with or without the test compound. The reaction was stopped using 50 μl/well of 200 mM EDTA. After incubation for a further 30 min at room temperature, the liquid was removed. Each well was washed three times with 100 μl of 0.9% sodium chloride solution. A non-specific reaction (blank value) was determined using 10 μM of a proprietary kinase inhibitor. The radioactivity measurement was carried out by means of a TopCount. IC50 values were calculated in RS1 (Kashishian et al. (2003) Molecular Cancer Therapeutics 1257) and are compiled in Table 1.

[2] = test system: kinases of the PI3K isoenzyme family; conditions: cited from earlier work
[3] = cited from earlier work
DNA-PK [4] = molecular target: T1, DNA-PK; conditions: Hardcastle et al. (2005); cited from earlier work
HCT116 cells = experiment: Cellular colony growth test with X-ray irradiation (Example 6); assay type: cell-based; conditions: Homo sapiens, HCT-116; HCT116, at 4.8 Gray
Protocol: The colorectal carcinoma cell line HCT116 was cultivated in MEM alpha medium with 10% of foetal calf serum, 1 mM sodium pyruvate and 2 mM glutamine at 37° C. and 10% CO2. The cells were detached from the base of the culture vessels with the aid of trypsine/EDTA, centrifuged off in centrifuge tubes and taken up in fresh medium. The cell density was subsequently determined. 300 cells were sown out in 6-well cell culture plates in 2 ml of culture medium and cultivated overnight. Next day, the cells were treated with test substances for one hour before the cell culture plates were treated with defined doses of X-rays (in general 0, 2.4, 4.8, 12 Gray; irradiation instrument: Faxitron RX-650; Faxitron X-Ray LLC, USA). In order to determine the dose/effect relationships, the cells were treated with various concentrations of a test substance. After irradiation, the cells are cultivated for a further 24 hours in the presence of the test substance, the culture medium was then replaced with culture medium without test substance, and the cells were cultivated for a further 6-8 days. The cell colonies formed were subsequently stained with the aid of Crystal Violet and counted in a colony counter (Gelcount, Oxford Optronics, UK). Dose/effect curves, in particular IC50 values, were determined using a curve adaptation function for nonlinear dose/effect relationships.

[5] = test system: DNA-PK phosphorylation at serine 2056 in HCT116 cells; experiment: Cellular DNA-PK phosphorylation at serine 2056 (Example 5); assay type: cell-based; conditions: 10 μM bleomycin, six hours
Protocol: HCT116 cells were cultivated in MEM alpha medium with 10% of foetal calf serum, 1 mM sodium pyruvate and 2 mM glutamine at 37° C. and 10% CO2. The cells were detached from the base of the culture vessels with the aid of trypsine/EDTA, centrifuged off in centrifuge tubes and taken up in fresh medium. The cell density was subsequently determined. 200,000 cells were sown per cavity of a 12-well cell culture plate in 1 ml of culture medium and cultivated overnight. Next day, 10 μM bleomycin and test substances in fresh culture medium was added to the cells and these were cultivated for a further six hours. Cell lysis was subsequently carried out. The cell lysates were investigated by SDS polyacrylamide gel electrophoresis by means of DNA-PK-specific antibodies (Abcam ab13852: total DNA-PK; ab18192: phosphoserine 2056 DNA-PK) and Western Blotting. The enzymatic reaction was developed with the aid of a chemiluminescence reagent. The chemiluminescence was recorded with the aid of a documentation system (VersaDoc™, Bio-Rad, USA) and evaluated densitometrically with the aid of instrument-specific software (Quantity One). The signals with phospho-DNA-PK-specific antibodies were standardised to the signal with the antibody against the total protein DNA-PK. IC50 values and percentage inhibition data were determined by referencing to the signal level of the bleomycin-treated vehicle control group.

| Compound | IC50 (DNA-PK [1]; read-out: Bonding DNA-PK IC50) [µM] | also measured |
| --- | --- | --- |
| O=c1cc(N2CCOCC2)oc2c(-c3ccccc3)cccc12 [LY294002] | – | increase in sensitivity to ionising irradiation in cellular terms (mammal cells): weak increase |
| Cc1cnc([C@H](O)[C@H]2CCCN(c3nnnc4cc(N5CCOCC5)ccc34)C2)s1 [compound 13, (R)-(5-Methyl-thiazol-2-yl)-[(S)-1-(7-morpholin-4-ylbenzo[d]-1,2,3-triazin-4-yl)-piperidin-3-yl]-methanol] | < 0.1 | – |
| O[C@H](c1nccs1)[C@@H]1CCCN(c2nnnc3cc(N4CCOCC4)ccc23)C1 [compound 2, (S)-[(R)-1-(7-Morpholin-4-yl-benzo[d]-1,2,3-triazin-4-yl)-piperidin-3-yl]-thiazol-2-yl-methanol] | < 0.1 | – |
| COc1ccc([C@@H](O)[C@H]2CCCN(c3nnnc4cc(N5CCOCC5)ccc34)C2)nn1 [compound 14, (S)-(6-Methoxy-pyridazin-3-yl)-[(S)-1-(7-morpholin-4-yl-benzo[d]-1,2,3-triazin-4-yl)-piperidin-3-yl]-methanol] | < 0.1 | – |
| COc1ccc([C@H](O)[C@H]2CCCN(c3nnnc4cc(N5CCOCC5)ccc34)C2)nn1 [compound 15, (R)-(6-Methoxy-pyridazin-3-yl)-[(S)-1-(7-morpholin-4-yl-benzo[d]-1,2,3-triazin-4-yl)-piperidin-3-yl]-methanol] | < 0.1 | – |
| CCn1cc([C@@H](O)[C@H]2CCCN(c3nnnc4cc(N5CCOCC5)ccc34)C2)cn1 [compound 20, (S)-(1-Ethyl-1H-pyrazol-4-yl)-[(S)-1-(7-morpholin-4-ylbenzo[d]-1,2,3-triazin-4-yl)-piperidin-3-yl]-methanol] | < 0.1 | – |
| O[C@@H](c1nccs1)[C@H]1CCCN(c2nnnc3cc(N4CCOCC4)ccc23)C1 [compound 1, (R)-[(S)-1-(7-Morpholin-4-yl-benzo[d]-1,2,3-triazin-4-yl)-piperidin-3-yl]-thiazol-2-yl-methanol] | < 0.1 | – |
| Cc1csc([C@H](O)[C@@H]2CCCN(c3nnnc4cc(N5CCOCC5)ccc34)C2)n1 [compound 7, (R)-(4-Methyl-thiazol-2-yl)-[(R)-1-(7-morpholin-4-ylbenzo[d]-1,2,3-triazin-4-yl)-piperidin-3-yl]-methanol] | < 0.1 | – |
| CCN1CCN(CC(=O)Nc2ccc(-c3cccc4c(=O)cc(N5CCOCC5)oc34)c3sc4ccccc4c23)CC1 [KU-0060648] | – | inhibition of kinases of the PI3K isoenzyme family [2]: potently inhibited; solubility profile in aqueous medium [3]: improved solubility profile |
| Cc1nc([C@H](O)[C@@H]2CCCN(c3nnnc4cc(N5CCOCC5)ccc34)C2)sc1C [compound 10, (R)-(4,5-Dimethyl-thiazol-2-yl)-[(R)-1-(7-morpholin-4-ylbenzo[d]-1,2,3-triazin-4-yl)-piperidin-3-yl]-methanol] | < 0.1 | – |
| Cc1csc([C@H](O)[C@H]2CCCN(c3nnnc4cc(N5CCOCC5)ccc34)C2)n1 [compound 5, (R)-(4-Methyl-thiazol-2-yl)-[(S)-1-(7-morpholin-4-ylbenzo[d]-1,2,3-triazin-4-yl)-piperidin-3-yl]-methanol] | < 0.1 | – |
| Cc1csc([C@@H](O)[C@H]2CCCN(c3nnnc4cc(N5CCOCC5)ccc34)C2)n1 [compound 4, (S)-(4-Methyl-thiazol-2-yl)-[(S)-1-(7-morpholin-4-ylbenzo[d]-1,2,3-triazin-4-yl)-piperidin-3-yl]-methanol] | < 0.1 | – |
| CC(C)n1cc([C@@H](O)[C@H]2CCCN(c3nnnc4cc(N5CCOCC5)ccc34)C2)cn1 [compound 18, (S)-(1-Isopropyl-1H-pyrazol-4-yl)-[(S)-1-(7-morpholin-4-yl-benzo[d]-1,2,3-triazin-4-yl)-piperidin-3-yl]-methanol] | < 0.1 | – |
| O=c1cc(N2CCOCC2)oc2c(-c3cccc4c3sc3ccccc34)cccc12 [NU-7441] | – | IC50 (DNA-PK [4]): 0.02 µM |
| C[C@](O)(c1nccs1)[C@H]1CCCN(c2nnnc3cc(N4CCOCC4)ccc23)C1 [compound 8, (R)-1-[(S)-1-(7-Morpholin-4-yl-benzo[d]-1,2,3-triazin-4-yl)-piperidin-3-yl]-1-thiazol-2-yl-ethanol] | < 0.1 | – |
| CC(C)(C)n1cc([C@@H](O)[C@H]2CCCN(c3nnnc4cc(N5CCOCC5)ccc34)C2)cn1 [compound 19, (S)-(1-tert-Butyl-1H-pyrazol-4-yl)-[(S)-1-(7-morpholin-4-yl-benzo[d]-1,2,3-triazin-4-yl)-piperidin-3-yl]-methanol] | < 0.1 | – |
| COc1ccc([C@H](O)[C@H]2CCCN(c3nnnc4cc(N5CCOCC5)ccc34)C2)cn1 [compound 17, (R)-(6-Methoxy-pyridin-3-yl)-[(S)-1-(7-morpholin-4-ylbenzo[d]-1,2,3-triazin-4-yl)-piperidin-3-yl]-methanol] | < 0.1 | – |
| Cc1nc([C@@H](O)[C@H]2CCCN(c3nnnc4cc(N5CCOCC5)ccc34)C2)sc1C [compound 11, (S)-(4,5-Dimethyl-thiazol-2-yl)-[(S)-1-(7-morpholin-4-ylbenzo[d]-1,2,3-triazin-4-yl)-piperidin-3-yl]-methanol] | < 0.1 | – |
| Cc1csc([C@@H](O)[C@@H]2CCCN(c3nnnc4cc(N5CCOCC5)ccc34)C2)n1 [compound 6, (S)-(4-Methyl-thiazol-2-yl)-[(R)-1-(7-morpholin-4-ylbenzo[d]-1,2,3-triazin-4-yl)-piperidin-3-yl]-methanol] | < 0.1 | – |
| Cc1cnc([C@@H](O)[C@H]2CCCN(c3nnnc4cc(N5CCOCC5)ccc34)C2)s1 [No. 12, (S)-(5-Methyl-thiazol-2-yl)-[(S)-1-(7-morpholin-4-ylbenzo[d]-1,2,3-triazin-4-yl)-piperidin-3-yl]-methanol] | < 0.1 | IC50 (HCT116 cells): < 0.4 µM |
| O[C@@H](c1nccs1)[C@@H]1CCCN(c2nnnc3cc(N4CCOCC4)ccc23)C1 [compound 3, (R)-[(R)-1-(7-Morpholin-4-yl-benzo[d]-1,2,3-triazin-4-yl)-piperidin-3-yl]-thiazol-2-yl-methanol] | < 0.1 | – |
| C[C@@](O)(c1nccs1)[C@H]1CCCN(c2nnnc3cc(N4CCOCC4)ccc23)C1 [compound 9, (S)-1-[(S)-1-(7-Morpholin-4-yl-benzo[d]-1,2,3-triazin-4-yl)-piperidin-3-yl]-1-thiazol-2-yl-ethanol] | < 0.1 | – |
| O[C@H](c1nccs1)[C@H]1CCCN(c2nnnc3cc(N4CCOCC4)ccc23)C1 [(S)-[(S)-1-(7-morpholin-4-ylbenzo[d]-1,2,3-triazin-4-yl)piperidin-3-yl]thiazol-2-ylmethanol] | – | IC50 (DNA-PK [1]; read-out: biochemical activity (assay from Example 4)): 0.001 µM; cellular activity (assay from Example 5) [5]: sub-micromolar |
| COc1ccc([C@@H](O)[C@H]2CCCN(c3nnnc4cc(N5CCOCC5)ccc34)C2)cn1 [compound 16, (S)-(6-Methoxy-pyridin-3-yl)-[(S)-1-(7-morpholin-4-ylbenzo[d]-1,2,3-triazin-4-yl)-piperidin-3-yl]-methanol] | < 0.1 | – |
